Results from patent US9346812B2, “Substituted pyrrolopyrimidine compounds, compositions thereof, and methods of treatment therewith” (Signal Pharmaceutical LLC, priority 2013, dated 2016).

Tested on: CAL51 cell proliferation
Test: Cell Titer Glo Proliferation Assay (CAL51)
Type: cell-based, human
Details: Homo sapiens, CAL-51; CAL51 cell proliferation, 72 h, Cell Titer Glo luminescence; read-out: Act. Level
Outline: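 CAL51 triple-negative breast cancer cells in DMEM or RPMI with 10% FBS were treated after overnight culture with serially diluted compound at 0.2% final DMSO. After 72 h, viability was read as CellTiter-Glo luminescence.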

SMILES	IC50 [nM]
CNC(=O)c1ccc(Nc2nc(OC3CCCC3)c3c(-c4ccc5c(C)noc5c4)c[nH]c3n2)c(OC)c1 [Example 279, 4-(4-(cyclopentyloxy)-5-(3-methylbenzo[d]isoxazol-6-yl)-7H-pyrrolo[2,3-d]pyrimidin-2-ylamino)-3-methoxy-N-methylbenzamide]	< 100
CNC(=O)c1cc(OC)c(Nc2nc(OC3CCCC3)c3c(-c4ccc5nc(C)oc5c4)c[nH]c3n2)cn1 [Example 280, 5-(4-(cyclopentyloxy)-5-(2-methylbenzo[d]oxazol-6-yl)-7H-pyrrolo[2,3-d]pyrimidin-2-ylamino)-4-methoxy-N-methylpicolinamide]	< 100
COc1cc(C(=O)NCC2COCCO2)ccc1Nc1nc(OC2CCCC2)c2c(-c3ccc4nc(C)oc4c3)c[nH]c2n1 (stereo not drawn) [Example 281, N-((1,4-dioxan-2-yl)methyl)-4-(4-(cyclopentyloxy)-5-(2-methylbenzo[d]oxazol-6-yl)-7H-pyrrolo[2,3-d]pyrimidin-2-ylamino)-3-methoxybenzamide]	100 to 400
COc1cc(C(=O)NCC2COC2)ccc1Nc1nc(OC2CCCC2)c2c(-c3ccc4nc(C)oc4c3)c[nH]c2n1 [Example 282, 4-(4-(cyclopentyloxy)-5-(2-methylbenzo[d]oxazol-6-yl)-7H-pyrrolo[2,3-d]pyrimidin-2-ylamino)-3-methoxy-N-(oxetan-3-ylmethyl)benzamide]	100 to 400
COc1cc(C(=O)N(C)CCCO)ccc1Nc1nc(OC2CCCC2)c2c(-c3ccc4nc(C)oc4c3)c[nH]c2n1 [Example 283]	< 100
COCCN(C)C(=O)c1ccc(Nc2nc(OC3CCCC3)c3c(-c4ccc5nc(C)oc5c4)c[nH]c3n2)c(OC)c1 [Example 284, 4-(4-(cyclopentyloxy)-5-(2-methylbenzo[d]oxazol-6-yl)-7H-pyrrolo[2,3-d]pyrimidin-2-ylamino)-3-methoxy-N-(2-methoxyethyl)-N-methylbenzamide]	< 100
COc1cc(C(=O)NCC(C)(C)O)ccc1Nc1nc(OC2CCCC2)c2c(-c3ccc4nc(C)oc4c3)c[nH]c2n1 [Example 285, 4-(4-(cyclopentyloxy)-5-(2-methylbenzo[d]oxazol-6-yl)-7H-pyrrolo[2,3-d]pyrimidin-2-ylamino)-N-(2-hydroxy-2-methylpropyl)-3-methoxybenzamide]	100 to 400
CC[C@H](C)Oc1nc(Nc2ccc(C(=O)NCCO)cc2OC)nc2[nH]cc(-c3cnn(C)c3)c12 [Example 286, (S)-4-(4-sec-butoxy-5-(1-methyl-1H-pyrazol-4-yl)-7H-pyrrolo [2,3-d]pyrimidin-2-ylamino)-N-(2-hydroxyethyl)-3-methoxybenzamide]	100 to 400
COc1cc(C(=N)N)ccc1Nc1nc(OC2CCCC2)c2c(-c3ccc4nc(C)oc4c3)c[nH]c2n1 [Example 287, 4-(4-(cyclopentyloxy)-5-(2-methylbenzo[d]oxazol-6-yl)-7H-pyrrolo[2,3-d]pyrimidin-2-ylamino)-3-methoxybenzimidamide]	1000 to 10000
CNC(=O)c1ccc(Nc2nc(OC3CCOCC3)c3c(-c4ccnc(C(=O)NC)c4)c[nH]c3n2)c(OC)c1 [Example 288, 4-(2-(2-methoxy-4-(methylcarbamoyl)phenylamino)-4-(tetrahydro-2H-pyran-4-yloxy)-7H-pyrrolo[2,3-d]pyrimidin-5-yl)-N-methylpicolinamide]	100 to 400
COc1cc(C(=O)N2CCC(F)(F)CC2)ccc1Nc1nc(OC2CCCC2)c2c(-c3ccc4nc(C)oc4c3)c[nH]c2n1 [Example 289, (4-(4-(cyclopentyloxy)-5-(2-methylbenzo[d]oxazol-6-yl)-7H-pyrrolo[2,3-d]pyrimidin-2-ylamino)-3-methoxyphenyl)(4,4-difluoropiperidin-1-yl)methanone]	100 to 400
CNC(=O)c1ccc(Nc2nc(OC3CCCC3)c3c(-c4ccc(NC(C)=O)c(O)c4)c[nH]c3n2)c(OC)c1 [Example 290, 4-(5-(4-acetamido-3-hydroxy-phenyl)-4-(cyclopentyloxy)-7H-pyrrolo[2,3-d]pyrimidin-2-ylamino)-3-methoxy-N-methylbenzamide]	100 to 400
